Data on eight molecules can be found in patent US4218566A, “11-(2-Hydroxyethylthio) prostenoic acid E and F series derivatives” (American Cyanamid Company, priority 1978, dated 1980).

Where two headings read alike, the source gives them in different places.

Broadly, the ED50 is the midpoint of the dose-response relation.

What all share (assay type): in vivo
Assay [1] relates to bronchospasms elicited by 5-hydroxytryptamine. The experiment in a line: bronchodilator activity, (modified) guinea pig Konzett procedure, 5-hydroxytryptamine-induced bronchospasm. Particulars: Cavia porcellus, iv. The procedure:
(§1) Bronchodilator activity is determined in guinea pigs against bronchospasms elicited by intravenous injections of 5-hydroxytryptamine, histamine of acetylcholine by the Konzett procedure. [See J. Lulling, P. Lievens, F. El Sayed and J. Prignot, Arzneimittel-Forschung, 18, 995 (1968)].
(§2) In the Table I which follows, bronchodilator activity for representative compounds of this invention against one or more of the three spasmogenic agents is expressed as an ED50 determined from the results obtained with three logarithemic cumulative intravenous doses.
(§3) The compounds dl-methyl ester of 11-deoxy-11α-(2-hydroxyethylthio)-15α-prostaglandin E2 (hereinafter called Compound I) and dl-methyl ester of 11-deoxy-11α-(2-hydroxyethoxy)-15α-prostaglandin E2 (hereinafter called Compound II) were submitted for testing in the modified Konzett procedure [J. Lulling, P. Lievens, F. El Sayed and J. Prignot, Arzneimittel-Forschung, 18, 995 (1968)].
(§4) The Modified Guinea Pig Konzett Assay measures the protective effects of experimental compounds against induced bronchospasms in guinea pigs.
(§5) Guinea pigs of either sex, weighing 300 to 500 g. are anesthetized by intraperitoneal injection of urethane at 1.5 g./kg. and curarized by intravenous injection of gallamine at 4 mg./kg. They are artificially ventilated through a tracheal cannula. Respiratory volume is adjusted according to the weight of the animal and the rate of the pump, in such a way as to obtain an insufflation pressure of 15-30 cm. of water.
(§6) The two jugular veins are catheterized, the first one being used for curarization and administration of the test compounds, the other one is used for the injection of the spasmogenic agent. Injections are made at selected speeds with a perfusion pump. The intratracheal pressure is measured with a transducer connected to the tracheal cannula and recorded on a polygraph.
(§7) Bronchial spasms are produced by intravenous injection of acetylcholine hydrochloride, histamine dihydrochloride or 5-hydroxy-tryptamine creatinine sulfate. The speed of injection of the spasmogenic solution and its concentration are chosen to give a dose (kept constant throughout the test) which is able to produce a consistant increase in the tracheal pressure. The injections are repeated every 5 minutes throughout the entire test by means of a program controlled automatic infusion syringe. When three successive control bronchoconstrictions of similar intensity are obtained, the animal is considered to be ready for the assay and receives the first dose of the test compound approximately two minutes later.
(§8) The compound being tested is suspended in 15% ethanol and injected through the jugular vein. The injection is repeated twice per animal at 15 minute intervals, so that three doses, in logarithmic progression, are assayed. Three spasms are recorded for each dose. The "bronchodilating" activity of each compound is assayed in at least four guinea pigs for each of the three spasmogenic substances. The amplitude of the three spasms (i.e. the difference between the maximum total tracheal pressure during the spasms and the normal insufflation pressure without spasm) following the administration of the drug are expressed in cm. of water.
(§9) When the average percent of variation (treated vs. control) of the first spasm following any dose of the compound reaches at least -50%, a regression line of the percent of variation versus the dose is computed in a semi-logarithmic system. The ED50 (dose producing a -50% variation) is then calculated. The same determination is made for the second and third spasm following the administration of a dose of the test compound if at some dose the variation percent reaches -50%.

For assay [2], the system named is bronchospasms elicited by histamine. The experiment in a line: bronchodilator activity, (modified) guinea pig Konzett procedure, histamine-induced bronchospasm. The settings on record: Cavia porcellus, iv. The procedure: as §1, §2, §3, §4, §5, §6, §7, §8, §9
The test system of assay [3] is bronchospasms elicited by acetylcholine. The experiment in a line: bronchodilator activity, (modified) guinea pig Konzett procedure, acetylcholine-induced bronchospasm. Particulars: Cavia porcellus, iv. The procedure:
as §1, §2, §3, §4, §5, §6, §7, §8, §9

Another assay has as its system bronchospasms. Briefly: bronchodilator activity overall, guinea pig Konzett assay. The settings on record: for Potency (Range 0-4): score. On the procedure: The natural PGE1, PGE2 and PGE3 compounds are potent in causing multiple biological responses, even at low doses. As a bronchodilator, the natural prostaglandins have an inconveniently short duration of activity.
as §1, §2, §3, §4, §5, §6, §7, §8, §9

[4] abbreviates: spasm 1, read-out: ED50 vs. 5-Hydroxytryptamine Creatinine Sulfate.
The mark [5] stands for this setting: spasm 2, read-out: ED50 vs. 5-Hydroxytryptamine Creatinine Sulfate.
The mark [6] stands for this setting: spasm 3, read-out: ED50 vs. 5-Hydroxytryptamine Creatinine Sulfate.
Where [7] appears, read: spasm 1, read-out: ED50 vs. Histamine Dihydrochloride.
The mark [8] stands for this setting: spasm 2, read-out: ED50 vs. Histamine Dihydrochloride.
[9] abbreviates: spasm 3, read-out: ED50 vs. Histamine Dihydrochloride.
Setting [10] is: spasm 1, read-out: ED50 vs. Acetylcholine Hydrochloride.
The mark [11] stands for this setting: spasm 2, read-out: ED50 vs. Acetylcholine Hydrochloride.
Where [12] appears, read: 5-HT, first line of values for the compound, read-out: ED50 5-HT.
Where [13] appears, read: histamine, first line of values for the compound, read-out: ED50 HIST.
Where [14] appears, read: histamine, second line of values for the compound, read-out: ED50 HIST.
Where [15] appears, read: acetylcholine, first line of values for the compound, read-out: ED50 ACH.
Where [16] appears, read: acetylcholine, second line of values for the compound, read-out: ED50 ACH.
The mark [17] stands for this setting: 5-HT, second line of values for the compound, read-out: ED50 5-HT.
The mark [18] stands for this setting: 5-HT, third line of values for the compound, read-out: ED50 5-HT.

Take `CCCCC[C@H](O)/C=C/[C@H]1[C@H](SCCO)CC(=O)[C@@H]1C/C=C\CCCC(=O)OC` (relative stereo) [Compound I, dl-methyl ester of 11-deoxy-11α-(2-hydroxyethylthio)-15α-prostaglandin E2]: the ED50 in assay [1] (setting [4]) worked out at 0.0176 mg/kg; in assay [1] (setting [5]), 0.0629 mg/kg; in assay [1] (setting [6]) it was 0.153 mg/kg; in assay [2] (setting [7]) it was 0.0157 mg/kg; in assay [2] (setting [8]), 0.0671 mg/kg; in assay [2] (setting [9]) it was 0.452 mg/kg. Moreover, the 50% effective dose (ED50) turned out to be 0.033 mg/kg in assay [3] (setting [10]) and 0.289 mg/kg in assay [3] (setting [11]). In addition, the “bronchodilator potency of Compound I compared with Compound II, statistical analysis” value in the assay on bronchospasms (Compound I vs Compound II) is reported as “significantly more potent than Compound II as a bronchodilator”.
Turning to `CCCCC[C@H](O)/C=C/[C@H]1[C@H](OCCO)CC(=O)[C@@H]1C/C=C\CCCC(=O)OC` (relative stereo) [Compound II, dl-methyl ester of 11-deoxy-11α-(2-hydroxyethoxy)-15α-prostaglandin E2, reference compound], the 50% effective dose (ED50) in assay [1] (setting [4]) is 0.119 mg/kg; in assay [1] (setting [5]), 0.495 mg/kg; in assay [1] (setting [6]) it was 1.28 mg/kg; in assay [2] (setting [7]), 0.152 mg/kg; in assay [2] (setting [8]), 0.707 mg/kg; in assay [2] (setting [9]), 1.46 mg/kg. Besides, the ED50 in assay [3] (setting [10]) was found to be 0.506 mg/kg; in assay [3] (setting [11]) it was 3.31 mg/kg.
For `CCCCC[C@H](O)/C=C/[C@H]1C(SCCO)CC(=O)[C@@H]1C/C=C\CCCC(=O)OC` (stereo partly drawn) [Example 223, Methyl Nat. 15α-hydroxy-9-oxo-11α/β(2-hydroxyethylthio)-5-cis,13-trans-prostadienoate], the ED50 in assay [1] (setting [12]) was 0.0088 mg/kg; in assay [2] (setting [13]), 0.00424 mg/kg; in assay [2] (setting [14]) it was 0.0442 mg/kg; in assay [3] (setting [15]), 0.0275 mg/kg; in assay [3] (setting [16]), 0.391 mg/kg. Further, the “Potency (Range 0-4)” value in the assay on bronchospasms worked out at 4.
In the case of `CCCCC(C)(O)C/C=C/C1C(SCCO)CC(=O)C1C/C=C\CCCC(=O)O` (stereo not drawn) [Example 225, 11α/β-(2-hydroxyethylthio)-16-hydroxy-16-methyl-9-oxo-5-cis,13-trans-prostadienoic acid], the ED50 in assay [1] (setting [12]) was 0.017 mg/kg; in assay [1] (setting [17]) it was 0.077 mg/kg; in assay [1] (setting [18]), 0.257 mg/kg; in assay [2] (setting [13]) it was 0.02 mg/kg; in assay [2] (setting [14]), 0.108 mg/kg; in assay [3] (setting [15]), 0.034 mg/kg. For the same molecule, the “Potency (Range 0-4)” value in the assay with bronchospasms came to 3.
For `CCCCC(O)C/C=C/C1C(SCCO)CC(=O)C1CCCCCCC(=O)O` (stereo not drawn) [Example 226, 11α/β(2-hydroxyethylthio)-16-hydroxy-9-oxo-13-trans-prostenoic acid], the 50% effective dose (ED50) came to 0.019 mg/kg in assay [1] (setting [12]); 0.082 mg/kg in assay [1] (setting [17]); 0.288 mg/kg in assay [1] (setting [18]); 0.0195 mg/kg in assay [2] (setting [13]); 0.15 mg/kg in assay [2] (setting [14]); 0.053 mg/kg in assay [3] (setting [15]). In the assay on bronchospasms, the “Potency (Range 0-4)” value is given as 3.
Take `CCCCC[C@H](O)/C=C/[C@H]1C(SCCO)CC(=O)[C@@H]1CCCCCCC(=O)O` (stereo partly drawn) [Example 228, Nat. 11α/β-(2-hydroxyethylthio)-15α-hydroxy-9-oxo-13-transprostenoic acid]: the ED50 is 0.0055 mg/kg in assay [1] (setting [12]); 0.034 mg/kg in assay [1] (setting [17]); 0.078 mg/kg in assay [1] (setting [18]); 0.0047 mg/kg in assay [2] (setting [13]); 0.036 mg/kg in assay [2] (setting [14]); 0.071 mg/kg in assay [2] (histamine, third line of values for the compound, read-out: ED50 HIST.). The ED50 was found to be 0.011 mg/kg in assay [3] (setting [15]); 0.061 mg/kg in assay [3] (setting [16]); 0.221 mg/kg in assay [3] (acetylcholine, third line of values for the compound, read-out: ED50 ACH.). In addition, in the assay on bronchospasms, the “Potency (Range 0-4)” value came out at 4.
Take `CCCCC[C@H](O)/C=C/[C@H]1[C@H](SCCO)CC(=O)[C@@H]1C/C=C\CCCC(=O)OC` [Methyl Nat.-11α-(2-hydroxyethylthio)-15α-hydroxy-9-oxo-5-cis,13-trans-prostadienoate]: the ED50 in assay [1] (setting [12]) worked out at 0.0059 mg/kg; in assay [1] (setting [17]), 0.035 mg/kg; in assay [2] (setting [13]), 0.00487 mg/kg; in assay [3] (setting [15]) it was 0.0111 mg/kg. Also, the “Potency (Range 0-4)” value in the assay with bronchospasms came out at 4.
`CCCCC[C@H](O)/C=C/[C@H]1[C@@H](SCCO)CC(=O)[C@@H]1C/C=C\CCCC(=O)OC` [methyl nat.-11β(2-hydroxyethylthio)-15α-hydroxy-9-oxo-5-cis,13-trans prostadienoate]: the median effective dose (ED50) worked out at 0.06 mg/kg in assay [1] (setting [12]), 0.0455 mg/kg in assay [2] (setting [13]), 0.0628 mg/kg in assay [3] (setting [15]) and 0.671 mg/kg in assay [3] (setting [16]). For the same molecule, the “Potency (Range 0-4)” value in the assay with bronchospasms stood at 4.
